Results published in patent publication US8192962B2, “Processes for detecting toxic substances” (Daikin Industries, Ltd., priority 2001, dated 2012).

Tested on: Unknown protein yeast genes
Experiment: DNA chip mRNA expression in yeast, unknown protein yeast genes (Table 1)
Type: cell-based, Saccharomyces cerevisiae S288C
How it was run: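 Cells were grown at 25° C. in YPD, treated at logarithmic phase for 2 h with a chemical at a concentration inhibiting growth but not causing death, and compared with untreated cultures. Labeled cDNA was hybridized to a DNA chip carrying all yeast genes, and the expression ratio was taken from scanner fluorescence.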

Measured: The level of expressed mRNA in the presence of chemical substance/The level of expressed mRNA in the absence of chemical substance

COc1cc(CNC(=O)CCCCC=CC(C)C)ccc1O [(12), 8-methyl-N-vanillyl-6-nonenamide]
0.6: yeast gene YAL053W, incubated two hours with chemical substance | yeast gene YCR043C | yeast gene YHL042W | yeast gene YIL012W | yeast gene YIL057C | yeast gene YIL089W | yeast gene YIL102C | yeast gene YKL086W, incubated two hours with chemical substance | yeast gene YMR009W, incubated two hours with chemical substance | yeast gene YOR129C
1.4: yeast gene YBL107C | yeast gene YGR110W | yeast gene YOL162W, incubated two hours with chemical substance
1.5: yeast gene YDR411C, incubated two hours with chemical substance | yeast gene YFL010C, incubated two hours with chemical substance
1.8: yeast gene YHR138C, incubated two hours with chemical substance | yeast gene YLR350W, incubated two hours with chemical substance | yeast gene YMR191W, incubated two hours with chemical substance | yeast gene YPL087W, incubated two hours with chemical substance
0.9: yeast gene YDL204W, incubated two hours with chemical substance | yeast gene YDR545W, incubated two hours with chemical substance | yeast gene YER079W, incubated two hours with chemical substance | yeast gene YER106W, incubated two hours with chemical substance | yeast gene YER175C, incubated two hours with chemical substance | yeast gene YGL199C, incubated two hours with chemical substance | yeast gene YGR154C, incubated two hours with chemical substance | yeast gene YIL023C, incubated two hours with chemical substance | yeast gene YJR054W, incubated two hours with chemical substance | yeast gene YKR091W, incubated two hours with chemical substance | yeast gene YNL074C, incubated two hours with chemical substance | yeast gene YNL156C, incubated two hours with chemical substance | yeast gene YOL117W, incubated two hours with chemical substance | yeast gene YOL131W, incubated two hours with chemical substance | yeast gene YPL196W, incubated two hours with chemical substance | yeast gene YPR023C, incubated two hours with chemical substance | yeast gene YPR151C, incubated two hours with chemical substance
1.9: yeast gene YMR316W, incubated two hours with chemical substance
1.7: yeast gene YER004W, incubated two hours with chemical substance | yeast gene YMR184W, incubated two hours with chemical substance
0.4: yeast gene YLR460C
0.7: yeast gene YFL032W, incubated two hours with chemical substance | yeast gene YGR130C, incubated two hours with chemical substance | yeast gene YNL281W, incubated two hours with chemical substance
2.0: yeast gene YLR149C, incubated two hours with chemical substance
1.6: yeast gene YGL121C | yeast gene YGR221C, incubated two hours with chemical substance | yeast gene YLR194C, incubated two hours with chemical substance
2.2: yeast gene YMR090W
1.2: yeast gene YBL048W | yeast gene YDL072C, incubated two hours with chemical substance | yeast gene YFL006W, incubated two hours with chemical substance | yeast gene YMR097C, incubated two hours with chemical substance | yeast gene YMR180C, incubated two hours with chemical substance | yeast gene YOL083W, incubated two hours with chemical substance
2.4: yeast gene YMR102C, incubated two hours with chemical substance
1.1: yeast gene YEL001C, incubated two hours with chemical substance | yeast gene YER035W, incubated two hours with chemical substance | yeast gene YGL047W, incubated two hours with chemical substance | yeast gene YHR199C, incubated two hours with chemical substance | yeast gene YIL087C, incubated two hours with chemical substance | yeast gene YKL153W, incubated two hours with chemical substance | yeast gene YKL195W, incubated two hours with chemical substance | yeast gene YLR054C, incubated two hours with chemical substance | yeast gene YLR387C, incubated two hours with chemical substance | yeast gene YMR067C, incubated two hours with chemical substance | yeast gene YMR295C, incubated two hours with chemical substance | yeast gene YNL092W, incubated two hours with chemical substance | yeast gene YNL234W, incubated two hours with chemical substance | yeast gene YNL305C, incubated two hours with chemical substance
1.0: yeast gene YDL222C, incubated two hours with chemical substance | yeast gene YDR330W, incubated two hours with chemical substance | yeast gene YER158C, incubated two hours with chemical substance | yeast gene YER163C, incubated two hours with chemical substance | yeast gene YGR101W, incubated two hours with chemical substance | yeast gene YIL041W, incubated two hours with chemical substance | yeast gene YJL057C, incubated two hours with chemical substance | yeast gene YJL066C, incubated two hours with chemical substance | yeast gene YJL152W, incubated two hours with chemical substance | yeast gene YJL161W, incubated two hours with chemical substance | yeast gene YJL171C, incubated two hours with chemical substance | yeast gene YKL071W | yeast gene YKL151C, incubated two hours with chemical substance | yeast gene YLR152C, incubated two hours with chemical substance | yeast gene YNL044W, incubated two hours with chemical substance | yeast gene YOL032W, incubated two hours with chemical substance | yeast gene YOL036W, incubated two hours with chemical substance | yeast gene YOL071W, incubated two hours with chemical substance | yeast gene YOL082W, incubated two hours with chemical substance | yeast gene YOR019W, incubated two hours with chemical substance | yeast gene YOR197W, incubated two hours with chemical substance
1.3: yeast gene YGL053W, incubated two hours with chemical substance | yeast gene YJL082W, incubated two hours with chemical substance | yeast gene YJL151C, incubated two hours with chemical substance | yeast gene YJR008W, incubated two hours with chemical substance | yeast gene YNR068C, incubated two hours with chemical substance | yeast gene YPL222W, incubated two hours with chemical substance
2.9: yeast gene YOL150C
0.8: yeast gene YDR511W, incubated two hours with chemical substance | yeast gene YFL024C | yeast gene YGL037C, incubated two hours with chemical substance | yeast gene YLR324W, incubated two hours with chemical substance | yeast gene YML117W, incubated two hours with chemical substance | yeast gene YMR095C, incubated two hours with chemical substance | yeast gene YMR107W, incubated two hours with chemical substance | yeast gene YNL115C, incubated two hours with chemical substance | yeast gene YOL047C, incubated two hours with chemical substance | yeast gene YPL206C, incubated two hours with chemical substance
0.5: yeast gene YCR102C
